Key:
Type in all cases: biochemical
c-KIT = target: T1, c-KIT (Homo sapiens, UniProt P10721); assay: Inhibition of c-KIT, radiometric filter-binding assay; settings: 700 μM ATP, 0.5 mg/mL pE4Y, room temperature
T1 construct: 0.02% BSA and 25 nM c-KIT
Experimental: Compounds are screened for their ability to inhibit c-KIT activity using a radiometric filter-binding assay. This assay monitors the ^33P incorporation into a substrate poly(Glu, Tyr) 4:1 (pE4Y). Reactions are carried out in a solution containing 100 mM HEPES (pH 7.5), 10 mM MgCl2, 25 mM NaCl, 1 mM DTT, 0.01% BSA and 2.5% DMSO. Final substrate concentrations in the assay were 700 μM ATP and 0.5 mg/mL pE4Y (both from Sigma Chemicals, St Louis, Mo.). The final concentration of compounds is generally between 0.01 and 5 μM. Typically, a 12-point titration is conducted by preparing serial dilutions from 10 mM DMSO stock of test compound. Reactions were carried out at room temperature.
Two assay solutions are prepared. Solution 1 contains 100 mM HEPES (pH 7.5), 10 mM MgCl2, 25 mM NaCl, 1 mg/ml pE4Y and 1.4 mM ATP(containing 0.5 μCi of [γ-^33P]ATP for each reaction). Solution 2 contains 100 mM HEPES (pH 7.5), 10 mM MgCl2, 25 mM NaCl, 2 mM DTT, 0.02% BSA and 25 nM c-KIT. The assay is run on a 96 well plate by mixing 33 μL of Solution1 and 1.65 μL of the test compounds. The reaction is initiated with 33 μL of Solution2. After incubation for 20 minutes at room temperature, the reaction was stopped with 50 μL of 10% TCA containing 0.2 mM of ATP. All of the reaction volume is then transferred to a filter plate and washed with 5% TCA by a Harvester9600 from TOMTEC (Hamden, Conn.). The amount of ^33P incorporation into pE4y is analyzed by a Packard TopCount Microplate Scintillation Counter (Meriden, Conn.). The data is fitted using Prism software to get an IC50 or Ki.

c-Met = c-Met (Homo sapiens, UniProt P08581); assay: Ki determination for the inhibition of c-Met, coupled enzyme system; settings: 200 μM ATP, 10 μM polyGluTyr, 80 nM c-Met, 30° C.
In short: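 Coupled pyruvate kinase/lactate dehydrogenase NADH assay with 80 nM c-Met, 200 μM ATP, 10 μM polyGluTyr in pH 7.5 HEPES, 1.5% DMSO at 30° C. Compound (0.006–12.5 μM final, 12-point) preincubated 10 min; ATP started reaction, rates read over 10 min; Ki derived from rate versus inhibitor concentration.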

KDR = KDR (Homo sapiens, UniProt P35968); assay: KDR enzyme assay, coupled enzyme assay; settings: 300 μM ATP, 10 μM poly E4Y, 30 nM KDR, 37° C.
Experimental: Compounds were screened for their ability to inhibit KDR using a standard coupled enzyme assay (Fox et al., Protein Sci., (1998) 7, 2249). Assays were carried out in a mixture of 200 mM HEPES 7.5, 10 mM MgCl2, 25 mM NaCl, 1 mM DTT and 1.5% DMSO. Final substrate concentrations in the assay were 300 μM ATP (Sigma Chemicals) and 10 μM poly E4Y (Sigma). Assays were carried out at 37° C. and 30 nM KDR. Final concentrations of the components of the coupled enzyme system were 2.5 mM phosphoenolpyruvate, 200 μM NADH, 30 μg/ML pyruvate kinase and 10 μg/ml lactate dehydrogenase.
An assay stock buffer solution was prepared containing all of the reagents listed above, with the exception of ATP and the test compound of interest. 177 μl of the stock solution was placed in a 96 well plate followed by addition of 3 μl of 2 mM DMSO stock containing the test compound (final compound concentration 30 μM). The plate was preincubated for about 10 minutes at 37° C. and the reaction initiated by addition of 20 μl of ATP (final concentration 300 μM). Rates of reaction were obtained using a Molecular Devices plate reader (Sunnyvale, Calif.) over a 5 minute read time at 37° C.

T1 sequence (P10721 26-976): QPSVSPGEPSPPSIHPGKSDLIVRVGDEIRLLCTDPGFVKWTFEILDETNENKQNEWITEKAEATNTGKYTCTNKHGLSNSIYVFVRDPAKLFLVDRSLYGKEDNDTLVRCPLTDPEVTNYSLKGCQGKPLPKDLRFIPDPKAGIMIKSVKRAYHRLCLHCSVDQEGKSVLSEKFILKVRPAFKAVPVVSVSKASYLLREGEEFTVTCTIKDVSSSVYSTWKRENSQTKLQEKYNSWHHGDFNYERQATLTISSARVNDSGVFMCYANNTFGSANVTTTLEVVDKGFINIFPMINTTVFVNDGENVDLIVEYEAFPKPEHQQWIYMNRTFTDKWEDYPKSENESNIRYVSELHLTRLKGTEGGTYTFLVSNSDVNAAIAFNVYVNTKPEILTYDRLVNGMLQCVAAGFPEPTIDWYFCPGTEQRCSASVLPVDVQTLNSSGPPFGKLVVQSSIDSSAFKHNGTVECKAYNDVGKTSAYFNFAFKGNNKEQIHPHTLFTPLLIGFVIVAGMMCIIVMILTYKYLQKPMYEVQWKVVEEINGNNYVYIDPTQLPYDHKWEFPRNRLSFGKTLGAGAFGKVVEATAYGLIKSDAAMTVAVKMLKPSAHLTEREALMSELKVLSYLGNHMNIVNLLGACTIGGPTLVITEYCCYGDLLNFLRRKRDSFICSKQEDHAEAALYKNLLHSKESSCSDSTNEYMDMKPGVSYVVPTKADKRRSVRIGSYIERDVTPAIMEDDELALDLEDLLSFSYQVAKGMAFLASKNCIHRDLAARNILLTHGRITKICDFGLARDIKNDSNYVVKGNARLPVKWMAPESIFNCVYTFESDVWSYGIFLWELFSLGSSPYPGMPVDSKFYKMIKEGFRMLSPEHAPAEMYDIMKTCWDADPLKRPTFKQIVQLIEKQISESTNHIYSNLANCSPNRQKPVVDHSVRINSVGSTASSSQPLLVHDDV
Sequence of KDR (P35968 20-1356): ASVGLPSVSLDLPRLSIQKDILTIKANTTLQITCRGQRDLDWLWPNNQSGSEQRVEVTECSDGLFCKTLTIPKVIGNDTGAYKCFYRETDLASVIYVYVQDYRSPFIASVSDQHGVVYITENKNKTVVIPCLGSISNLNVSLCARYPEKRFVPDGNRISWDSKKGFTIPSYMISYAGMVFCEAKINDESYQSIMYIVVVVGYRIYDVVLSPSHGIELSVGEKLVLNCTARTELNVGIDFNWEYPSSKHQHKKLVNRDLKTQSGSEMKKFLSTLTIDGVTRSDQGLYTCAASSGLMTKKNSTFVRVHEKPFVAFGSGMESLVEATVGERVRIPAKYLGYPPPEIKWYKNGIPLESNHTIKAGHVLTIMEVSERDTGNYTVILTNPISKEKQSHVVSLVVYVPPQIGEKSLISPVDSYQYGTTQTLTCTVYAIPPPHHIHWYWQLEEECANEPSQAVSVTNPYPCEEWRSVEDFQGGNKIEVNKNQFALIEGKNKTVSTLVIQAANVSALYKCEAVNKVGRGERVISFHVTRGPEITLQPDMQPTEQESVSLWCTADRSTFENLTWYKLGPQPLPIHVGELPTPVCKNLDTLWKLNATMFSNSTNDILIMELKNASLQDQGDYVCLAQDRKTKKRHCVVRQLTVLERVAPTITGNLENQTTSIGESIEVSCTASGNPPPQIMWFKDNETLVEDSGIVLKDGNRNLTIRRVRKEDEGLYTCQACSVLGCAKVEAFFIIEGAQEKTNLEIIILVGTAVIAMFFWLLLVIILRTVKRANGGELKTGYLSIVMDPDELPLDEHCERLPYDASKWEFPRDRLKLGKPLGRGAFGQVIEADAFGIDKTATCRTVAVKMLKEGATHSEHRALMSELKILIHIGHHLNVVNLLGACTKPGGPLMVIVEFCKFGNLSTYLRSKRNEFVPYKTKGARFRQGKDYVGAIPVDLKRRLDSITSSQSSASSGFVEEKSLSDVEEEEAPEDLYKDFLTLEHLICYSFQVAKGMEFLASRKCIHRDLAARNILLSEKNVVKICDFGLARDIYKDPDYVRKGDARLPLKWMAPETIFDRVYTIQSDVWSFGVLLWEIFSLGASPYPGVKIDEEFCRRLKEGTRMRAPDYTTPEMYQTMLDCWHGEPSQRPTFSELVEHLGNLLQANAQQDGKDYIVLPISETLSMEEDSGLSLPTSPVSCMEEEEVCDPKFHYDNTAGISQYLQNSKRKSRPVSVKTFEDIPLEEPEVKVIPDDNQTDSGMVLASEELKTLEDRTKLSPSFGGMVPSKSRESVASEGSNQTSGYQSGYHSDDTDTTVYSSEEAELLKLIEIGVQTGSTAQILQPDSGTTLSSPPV
Sequence of c-Met (P08581 25-1390): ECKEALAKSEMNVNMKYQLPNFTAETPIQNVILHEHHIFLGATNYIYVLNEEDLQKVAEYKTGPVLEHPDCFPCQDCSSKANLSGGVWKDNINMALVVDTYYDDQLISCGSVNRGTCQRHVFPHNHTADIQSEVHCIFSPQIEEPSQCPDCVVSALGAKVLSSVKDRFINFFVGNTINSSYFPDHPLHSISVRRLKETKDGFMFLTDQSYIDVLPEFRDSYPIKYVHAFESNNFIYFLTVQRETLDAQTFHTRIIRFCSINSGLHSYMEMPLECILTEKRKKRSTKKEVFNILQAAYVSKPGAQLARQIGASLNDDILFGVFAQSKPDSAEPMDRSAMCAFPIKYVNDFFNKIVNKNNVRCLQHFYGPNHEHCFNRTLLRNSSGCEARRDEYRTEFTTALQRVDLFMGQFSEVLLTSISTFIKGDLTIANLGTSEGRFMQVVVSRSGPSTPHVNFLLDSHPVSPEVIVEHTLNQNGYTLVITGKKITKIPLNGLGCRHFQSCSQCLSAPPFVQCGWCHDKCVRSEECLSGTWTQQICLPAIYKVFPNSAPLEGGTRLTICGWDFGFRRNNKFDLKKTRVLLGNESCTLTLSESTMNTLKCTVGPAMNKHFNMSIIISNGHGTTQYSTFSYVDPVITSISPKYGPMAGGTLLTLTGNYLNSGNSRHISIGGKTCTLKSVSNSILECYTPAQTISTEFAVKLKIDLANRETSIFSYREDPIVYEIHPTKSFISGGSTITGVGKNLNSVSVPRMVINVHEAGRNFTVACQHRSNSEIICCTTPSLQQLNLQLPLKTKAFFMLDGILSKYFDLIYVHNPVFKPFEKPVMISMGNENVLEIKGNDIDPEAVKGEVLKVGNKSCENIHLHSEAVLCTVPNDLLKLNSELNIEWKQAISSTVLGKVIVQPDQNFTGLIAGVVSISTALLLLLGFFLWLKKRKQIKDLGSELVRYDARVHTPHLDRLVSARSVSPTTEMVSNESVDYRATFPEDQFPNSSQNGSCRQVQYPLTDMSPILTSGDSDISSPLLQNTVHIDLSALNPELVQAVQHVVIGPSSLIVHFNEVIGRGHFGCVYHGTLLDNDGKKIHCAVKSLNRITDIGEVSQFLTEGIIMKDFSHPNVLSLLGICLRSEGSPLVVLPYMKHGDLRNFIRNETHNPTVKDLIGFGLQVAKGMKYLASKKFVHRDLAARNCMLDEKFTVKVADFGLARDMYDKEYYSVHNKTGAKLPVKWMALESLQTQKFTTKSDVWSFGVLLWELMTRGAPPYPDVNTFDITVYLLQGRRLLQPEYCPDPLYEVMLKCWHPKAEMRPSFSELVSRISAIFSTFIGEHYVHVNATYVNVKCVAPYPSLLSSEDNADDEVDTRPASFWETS

Ki (c-KIT) | Ki (c-Met) | Ki (KDR) | SMILES
< 200 nM | < 200 nM | 200 to 1000 nM | COc1cnc2[nH]cc(-c3oncc3-c3cccc(F)c3F)c2c1 [Compound 38, 3-[4-(2,3-Difluoro-phenyl)-isoxazol-5-yl]-5-methoxy-1H-pyrrolo[2,3-b]pyridine]
< 200 nM | < 200 nM | 200 to 1000 nM | CN(C)CC#Cc1cnc2[nH]cc(-c3oncc3-c3cccc(F)c3F)c2c1 [Compound 53, (3-{3-[4-(2,3-Difluoro-phenyl)-isoxazol-5-yl]-1H-pyrrolo[2,3-b]pyridin-5-yl}-prop-2-ynyl)-dimethyl-amine]
< 200 nM | < 200 nM | 200 to 1000 nM | Fc1cccc(-c2cnoc2-c2c[nH]c3ncc(-c4ccc(CN5CCOCC5)cc4)cc23)c1F [Compound 92, 3-[4-(2,3-Difluoro-phenyl)-isoxazol-5-yl]-5-(4-morpholin-4-ylmethyl-phenyl)-1H-pyrrolo[2,3-b]pyridine]
< 200 nM | < 200 nM | < 200 nM | CN1CCN(c2ccc(-c3cnc4[nH]cc(-c5oncc5-c5cccc(F)c5F)c4c3)cn2)CC1 [Compound 71, 3-[4-(2,3-Difluoro-phenyl)-isoxazol-5-yl]-5-[6-(4-methyl-piperazin-1-yl)-pyridin-3-yl]-1H-pyrrolo[2,3-b]pyridine]
< 200 nM | < 200 nM | < 200 nM | CN1CCN(Cc2ccc(-c3cnc4[nH]cc(-c5oncc5-c5cccc(F)c5F)c4c3)cc2)CC1 [Compound 94, 3-[4-(2,3-Difluoro-phenyl)-isoxazol-5-yl]-5-[4-(4-methyl-piperazin-1-ylmethyl)-phenyl]-1H-pyrrolo[2,3-b]pyridine]
200 to 1000 nM | < 200 nM | 1000 to 12500 nM | Fc1cccc(-c2cnoc2-c2c[nH]c3ncc(C4CCNCC4)cc23)c1F [Compound 62, 3-[4-(2,3-Difluoro-phenyl)-isoxazol-5-yl]-5-piperidin-4-yl-1H-pyrrolo[2,3-b]pyridine]
< 200 nM | < 200 nM |  | CCN1CCC(c2cnc3[nH]cc(-c4oncc4-c4cccc(F)c4F)c3c2)CC1 [Compound 72, 3-[4-(2,3-Difluoro-phenyl)-isoxazol-5-yl]-5-(1-ethyl-piperidin-4-yl)-1H-pyrrolo[2,3-b]pyridine]
200 to 1000 nM | < 200 nM |  | CN1CCC(c2cnc3[nH]cc(-c4oncc4-c4cccc(F)c4F)c3c2)CC1 [Compound 60, 3-[4-(2,3-Difluoro-phenyl)-isoxazol-5-yl]-5-(1-methyl-piperidin-4-yl)-1H-pyrrolo[2,3-b]pyridine]

The remaining lines, values behind:

SMILES | Ki (c-KIT) | Ki (c-Met) | Ki (KDR)
Fc1cccc(-n2cnnc2-c2c[nH]c3ncc(-c4ccc(CN5CCOCC5)cc4)cc23)c1F [Compound 109, 3-[4-(2,3-Difluoro-phenyl)-4H-[1,2,4]triazol-3-yl]-5-(4-morpholin-4-ylmethyl-phenyl)-1H-pyrrolo[2,3-b]pyridine] | < 200 nM | < 200 nM | 200 to 1000 nM
OC1CCN(c2ccc(-c3cnc4[nH]cc(-c5nncn5-c5cccc(F)c5F)c4c3)cn2)CC1 [Compound 116, 5′-{3-[4-(2,3-Difluoro-phenyl)-4H-[1,2,4]triazol-3-yl]-1H-pyrrolo[2,3-b]pyridin-5-yl}-3,4,5,6-tetrahydro-2H-[1,2′]bi-pyridinyl-4-ol] | 200 to 1000 nM | < 200 nM | 200 to 1000 nM
Fc1cccc(-c2cnoc2-c2c[nH]c3ncc(-c4cnc5[nH]ccc5c4)cc23)c1F [Compound 77, 3-[4-(2,3-Difluoro-phenyl)-isoxazol-5-yl]-1H,1′H-[5,5′]bi[pyrrolo[2,3-b]pyridinyl]] | < 200 nM | < 200 nM | < 200 nM
CN1CCN(c2ccc(-c3cnc4[nH]cc(-c5oncc5-c5cccc(F)c5F)c4c3)cc2)CC1 [Compound 70, 3-[4-(2,3-Difluoro-phenyl)-isoxazol-5-yl]-5-[4-(4-methyl-piperazin-1-yl)-phenyl]-1H-pyrrolo[2,3-b]pyridine methanesulfonate] | < 200 nM | < 200 nM | < 200 nM
COc1cncc(-c2cnc3[nH]cc(-c4oncc4-c4cccc(F)c4F)c3c2)c1 [Compound 96, 3-[4-(2,3-Difluoro-phenyl)-isoxazol-5-yl]-5-(5-methoxy-pyridin-3-yl)-1H-pyrrolo[2,3-b]pyridine] | < 200 nM | < 200 nM | < 200 nM
CN(C)Cc1ccnc(-c2cnc3[nH]cc(-c4oncc4-c4cccc(F)c4F)c3c2)c1 [Compound 82, (2-{3-[4-(2,3-Difluoro-phenyl)-isoxazol-5-yl]-1H-pyrrolo[2,3-b]pyridin-5-yl}-pyridin-4-ylmethyl)-dimethyl-amine] | < 200 nM | < 200 nM | < 200 nM
CC(=O)Nc1ccc(-c2cnc3[nH]cc(-c4oncc4-c4cccc(F)c4F)c3c2)cc1 [Compound 95, N-(4-{3-[4-(2,3-Difluoro-phenyl)-isoxazol-5-yl]-1H-pyrrolo[2,3-b]pyridin-5-yl}-phenyl)-acetamide] | < 200 nM | < 200 nM | 200 to 1000 nM
Fc1cccc(-n2cnnc2-c2c[nH]c3ncc(-c4cccnc4)cc23)c1F [Compound 113, 3-[4-(2,3-Difluoro-phenyl)-4H-[1,2,4]triazol-3-yl]-5-pyridin-3-yl-1H-pyrrolo[2,3-b]pyridine] | 200 to 1000 nM | < 200 nM | 200 to 1000 nM
CN(C)c1ccc(-c2cnc3[nH]cc(-c4oncc4-c4cccc(F)c4F)c3c2)cc1 [Compound 88, (4-{3-[4-(2,3-Difluoro-phenyl)-isoxazol-5-yl]-1H-pyrrolo[2,3-b]pyridin-5-yl}-phenyl)-dimethyl-amine] | < 200 nM | < 200 nM | < 200 nM
Fc1cccc(-n2cnnc2-c2c[nH]c3ncc(-c4ccncc4)cc23)c1F [Compound 114, 3-[4-(2,3-Difluoro-phenyl)-4H-[1,2,4]triazol-3-yl]-5-pyridin-4-yl-1H-pyrrolo[2,3-b]pyridine] | < 200 nM | < 200 nM | 200 to 1000 nM
Fc1cccc(-c2cnoc2-c2c[nH]c3ncc(C4=CCC(NCc5ccccc5)CC4)cc23)c1F (stereo not drawn) [Compound 136, Benzyl-(4-{3-[4-(2,3-difluoro-phenyl)-isoxazol-5-yl]-1H-pyrrolo[2,3-b]pyridin-5-yl}-cyclohex-3-enyl)-amine] | < 200 nM | < 200 nM | 200 to 1000 nM
Fc1cccc(-c2cnoc2-c2c[nH]c3ncc(-c4ccccn4)cc23)c1F [Compound 73, 3-(4-(2,3-Difluoro-phenyl)-isoxazol-5-yl)-5-pyridin-2-yl-1H-pyrrolo[2,3-b]pyridine] | < 200 nM | < 200 nM | 1000 to 12500 nM
Cn1ccc2c(-c3oncc3-c3cccc(F)c3F)c[nH]c2c1=O [Compound 144, 3-[4-(2,3-Difluoro-phenyl)-isoxazol-5-yl]-6-methyl-1,6-dihydro-pyrrolo[2,3-c]pyridin-7-one] | 200 to 1000 nM | 200 to 1000 nM | 
Fc1cccc(-c2cnoc2-c2c[nH]c3ncc(-c4cccnc4)cc23)c1F [Compound 59, 3-[4-(2,3-Difluoro-phenyl)-isoxazol-5-yl]-5-pyridin-3-yl-1H-pyrrolo[2,3-b]pyridine] | < 200 nM | < 200 nM | 200 to 1000 nM
CN(C)c1ccc(-c2cnc3[nH]cc(-c4nncn4-c4cccc(F)c4F)c3c2)cc1 [Compound 106, (4-{3-[4-(2,3-Difluoro-phenyl)-4H-[1,2,4]triazol-3-yl]-1H-pyrrolo[2,3-b]pyridin-5-yl}-phenyl)-dimethyl-amine] | < 200 nM | < 200 nM | 200 to 1000 nM

From US7446199B2, “Compositions useful as inhibitors of protein kinases” (Vertex Pharmaceuticals Incorporated, priority 2003, dated 2008)
